Measurements as given in patent US20190343817A1, “METHOD OF TREATING PAIN” (VERTEX PHARMACEUTICALS INCORPORATED, priority 2018, published 2019).

Columns and labels:
[1] = test system: patients with chronic pain caused by small fiber neuropathy; experiment: Efficacy of Compound 1 for pain caused by small fiber neuropathy (randomized, double-blind, placebo-controlled, 6-week study); assay type: in vivo, human
Method: A randomized, double-blind, placebo-controlled, 6-week study that evaluated treatment with Compound 1 (Treatment Arm) or placebo (Placebo Arm) in patients with chronic pain caused by small fiber neuropathy was conducted.
Males and females between the ages of 18 and 80 years, inclusive, with small fiber neuropathy.
Compound 1 was administered orally in 250 mg capsules, prepared as described in Example 2.
The study included a 7-day run-in period, followed a 6-week treatment period. The subjects were randomized to a Placebo Arm (43 subjects) and a Treatment Arm (46 subjects) between the run-in period and the treatment period.
During the run-in period, subjects reported their average pain and sleep interference to establish a baseline NRS pain score and DSIS score.
During the treatment period, Compound 1 was administered to the subjects in the Treatment Arm every 24 hours (q24 h) in a dose of 1250 mg. Subjects in the Placebo Arm received placebo capsules.
Pain intensity was evaluated using an 11-point NRS. The 11-point scale ranged from 0 (no pain) to 10 (worst imaginable pain). From Day −7 through Week 6, subjects reported their average daily pain during the last 24 hours on the NRS via electronic diary.
Subjects reported pain interference with sleep using an 11-point scale ranging from 0 (none) to 10 (severe). The DSIS score was reported each morning in an electronic diary.
Subjects' impressions of their overall health status were reported on a 7-point scale from 1 (very much improved) to 7 (very much worse) at study visits.
NRS pain scores were averaged over weekly periods to reduce the impact on the analyses of individual high or low pain scores. The mean change from baseline in the weekly average of daily pain intensity on the 11-point NRS over the course of the treatment period for subjects in the Placebo and Treatment Arms is depicted graphically in FIG. 3. The mean change from baseline for those treated with Compound 1 compared to placebo was −1.09 (95% CI: −1.88 to −0.29) at Week 6.
The number and percentage of subjects with ≥30% and ≥50% reduction in the weekly average of daily pain intensity on the 11-point NRS at Week 6 is reported in Table 9. The total number of subjects for determining the percentage was based on subjects who had data at Week 6.
The total number of subjects for determining the percentage was based on subjects who had data at Week 6.

[2] = test system: subjects with pain following bunionectomy; experiment: Safety evaluations in the bunionectomy study (adverse events)
Excerpt: Safety evaluations included adverse events, clinical laboratory assessments, clinical evaluation of vital signs, electrocardiograms, and physical examinations.

[3] = test system: subjects with pain following bunionectomy; experiment: Efficacy of Compound 1 in subjects with pain following bunionectomy (randomized, double-blind, placebo-controlled, 3-arm study); assay type: in vivo, human
Method: A randomized, double-blind, placebo-controlled, 3-arm, parallel-design study to evaluate the effect of Compound 1 on acute surgical pain was conducted. Bunionectomy is a well-established, multi-dose, surgical, acute pain model. A randomized, double-blind study design was selected to avoid observer bias and reduce symptoms or outcomes arising from the subjects' knowledge of treatment. A parallel design was considered most appropriate given the acute nature of bunionectomy surgery.
Male and female patients between the ages of 18 and 65 years (inclusive) with pain that is ≥4 on an 11-point Numeric Pain Rating Scale (NPRS) and is moderate or severe on the Verbal Categorical Rating Scale (VRS) after bunionectomy.
Investigational Drug: Compound 1. The investigational drug was administered orally in 250 mg capsules, prepared as described in Example 2. The investigational drug was administered every 12 hours (q12 h). The first dose was 1500 mg, and the remaining doses were 750 mg.
The reference drug was administered orally in 5 mg/325 mg capsules, supplied as over-encapsulated 5 mg/325 mg tablets. The reference drug was administered in a dose of 5 mg/325 mg every 6 hours (q6 h).
After a screening period, subjects received a primary unilateral first metatarsal bunionectomy repair on Day −1. A continuous popliteal sciatic block infusion (0.2% ropivacaine) was started after surgery, and remained in place until approximately 3 AM on Day 1. After removal of the popliteal sciatic block, each subject was randomized when the subject requested the first dose of study drug for pain relief and reported pain ≥4 on the NPRS and moderate or severe pain on the VRS.
A total of 243 subjects were randomized approximately 1:1:1 to the Investigational Arm (80 subjects), Reference Arm (81 subjects), and Placebo Arm (82 subjects). To maintain the blind, all subjects received the same number of capsules in a double-dummy design.
In the Investigational Arm, Compound 1 was administered every 12 hours (q12 h) in a first dose of 1500 mg, followed by three 750 mg doses. The final dose of Compound 1 was given 36 hours after the first dose.
Compound 1 placebo capsules were administered every 12 hours (q12 h).
NPRS scores are frequently used in bunionectomy studies and are recognized by the FDA as a valid pain intensity measure. On the 11-point NPRS, a score of 0 denoted no pain, and a score of 10 denoted the worst pain intensity imaginable. Subjects reported their pain on the 11-point NPRS immediately before their first dose of the study drug (baseline NPRS score) and 0.5, 1, 1.5, 2, 3, 4, 5, 6, 8, 12, 16, 20, 24, 28, 32, 36, 40, 44, and 48 hours (±5 minutes) after the first dose of study drug. Pain intensity also was recorded on the NPRS immediately before each administration of rescue medication. Pain intensity scores that were collected within 4 hours after a dose of rescue medication were taken as missing, and the missing values were imputed as the intensity recorded immediately before the administration of rescue medication.
The primary efficacy analysis was based on an analysis of covariance (ANCOVA) model. The Least Squares (LS) mean of the time-weighted sum of the NPRS pain intensity difference, relative to baseline, from 0 to 24 hours after the first dose (“SPID24”) for each study arm is reported in Table 3. SPID24 is a standard measure of acute pain. Higher SPID24 scores represent improvements in pain relief. “Treatment difference” refers to the difference in SPID24 between the Investigational and Reference Arms, respectively, and the Placebo Arm.
The LS mean of the time-weighted sum of the NPRS pain intensity difference, relative to baseline, from 2 to 24 hours after the first dose (“SPID22”) for each study arm is reported in Table 4. The analysis was based on an analysis of covariance (ANCOVA) model. “Treatment difference” refers to the difference in SPID22 between the Investigational and Reference Arms, respectively, and the Placebo Arm.

[4] = Week 6, 1250 mg q24 h, n/Total of subjects with data at Week 6 given
[5] = oral, Compound 1 1500 mg first dose then 750 mg q12 h, HB/APAP 5 mg/325 mg q6 h, ANCOVA
[6] = relative to baseline, 24 hours after first dose, Investigational Arm 80 subjects, Reference Arm 81 subjects

Question: Which “Mean change from baseline NRS at week 6 (SE), weekly average of daily pain intensity on 11-point NRS” value ([1]; 1250 mg q24 h oral, 6 weeks, baseline 6.43, within-group) does the source give for `Cc1cc(F)ccc1Oc1cc(C(F)(F)F)ccc1C(=O)Nc1ccn(COP(=O)(O)O)c(=O)c1` [Compound 1, (4-(2-(4-fluoro-2-methylphenoxy)-4-(trifluoromethyl)benzamido)-2-oxopyridin-1(2H)-yl)methyl dihydrogen phosphate] here?
Answer: The value was −2.02 (0.27).

Question: And the “Subjects categorized as improved on the PGIC assessment” value [1, 4]?
Answer: Its value is 39.5% (17/43).

Question: And the “Subjects with ≥30% reduction in weekly average of daily pain intensity on 11-point NRS” value [1, 4]?
Answer: Its value is 45.0% (18/40).

Question: And the “Subjects with ≥50% reduction in weekly average of daily pain intensity on 11-point NRS” value [1, 4]?
Answer: The value was 32.5% (13/40).

Question: And the “Mean change from baseline in weekly average of daily pain intensity (NRS), Compound 1 compared to placebo” value ([1]; Week 6, 1250 mg q24 h oral)?
Answer: The value was −1.09 (95% CI: −1.88 to −0.29).

Question: And the “Mean change from baseline (SE) in weekly average of Daily Sleep Interference Scale (DSIS) score” value ([1]; Week 6, 1250 mg q24 h oral, baseline 5.94)?
Answer: Its value is −1.78 (0.28).

Question: What about the “Treatment difference versus placebo in NRS pain intensity” value ([1]; as early as Week 1, 1250 mg q24 h oral) of the same compound?
Answer: The value was “greater than 1 point”.

Question: What about the Tolerability ([2]; 1500 mg then 750 mg q12 h, oral) of the same compound?
Answer: Its Tolerability is “generally well tolerated”.

Question: And the Gastrointestinal adverse events ([2]; percentage of arm)?
Answer: Its Gastrointestinal adverse events is 13%.

Question: And the “Treatment difference in SPID24 versus Placebo Arm” value ([3]; 0 to 24 hours after first dose, same dosing as SPID24)?
Answer: The value was 29.50.

Question: What about the “Treatment difference in SPID48 versus Placebo Arm” value ([3]; 0 to 48 hours after first dose) of the same compound?
Answer: The value was 62.79.

Question: And the “Treatment difference in SPID22 versus Placebo Arm” value ([3]; 2 to 24 hours after first dose)?
Answer: The value was 28.53.

Question: And the “Relief of acute pain compared to placebo (SPID24)” value ([3]; Investigational Arm, 1500 mg then 750 mg q12 h)?
Answer: Its value is “statistically significant relief of acute pain compared to placebo”.

Question: And the “Subjects who discontinued due to lack of efficacy” value ([3]; bunionectomy study, of subjects assigned to the arm)?
Answer: Its value is 7.5%.

Question: What about the “SPID22 (SE): LS mean of time-weighted sum of NPRS pain intensity difference, relative to baseline, 2 to 24 hours after first dose” value [3, 5] of the same compound?
Answer: Its value is 34.95 (4.93).

Question: What about the “SPID48 (SE): LS mean of time-weighted sum of NPRS pain intensity difference, relative to baseline, 0 to 48 hours after first dose” value [3, 5] of the same compound?
Answer: The value was 112.22 (10.57).

Question: What about the “SPID24 (SE): LS mean of time-weighted sum of NPRS pain intensity difference, relative to baseline, 0 to 24 hours after first dose” value ([3]; oral, Compound 1 1500 mg first dose then 750 mg q12 h, HB/APAP 5 mg/325 mg q6 h, ANCOVA, higher = better pain relief) of the same compound?
Answer: The value was 36.14 (5.15).

Question: And the “Subjects achieving ≥30% NPRS reduction at 24 hours” value [3, 6]?
Answer: The value was 46 (57.5) n (%).

Question: What about the “Subjects achieving ≥50% NPRS reduction at 24 hours” value [3, 6] of the same compound?
Answer: The value was 41 (51.3) n (%).

Question: And the “Subjects achieving ≥70% NPRS reduction at 24 hours” value [3, 6]?
Answer: Its value is 22 (27.5) n (%).
